From PMC4009402, “Evaluation of a biohybrid photoelectrochemical cell employing the purple bacterial reaction centre as a biosensor for herbicides” (Biosensors & Bioelectronics, 2014)
Several values for one entry are separate records, joined by “and”; a condition that tells them apart may be missing. Equal entries are not always repeated. Where two headings read alike, the source gives them in different places.

Columns and labels:
[1] = molecular target: T1, Rba. sphaeroides reaction centre (QB site) (Cereibacter sphaeroides, UniProt P0C0Y8); assay: Inhibition of photocurrent generation in photoelectrochemical cell with reaction centres adhered to a gold electrode; type: biochemical, Rhodobacter sphaeroides; conditions: for inhibition of the QB site / photocurrent (in words): present study, detergent-free buffer; for LOD (IC5): calculated from IC50 and Hill coefficient, 5% change in current
T1 construct: made in house; host or cells: Rba. sphaeroides strain DD13 carrying plasmid pvLMt (written pvLMtX)
Procedure: To adhere reaction centres the cleaned gold electrode was immersed in 25 µL of a 1 mg mL^−1 (approximately 10 µM) solution of purified reaction centres in 20 mM Tris (pH 8.0)/0.1% LDAO for 1 h at 4 °C in dark. Unbound reaction centres were removed by dipping the electrode in ice-cold 20 mM Tris (pH 8.0) three times. The coated gold electrode was assembled into a glass-bottomed cell along with a Pt counter electrode (Radiometer Analytical), and an Ag/AgCl reference electrode (Radiometer Analytical). The cell was filled with 1 ml of 20 mM Tris (pH 8.0) containing 20 µM horse heart cyt c and 30 µM UQ0 (both from Sigma-Aldrich) and placed above a shutter-controlled 1.5 W 880 nm LED light source (Roithner LaserTechnik), resulting in an illumination intensity of 46 mW cm^−2 at the working electrode. A potential of −100 mV vs SCE was applied and photocurrents measured by chronoamperometry using the Autolab PGSTAT128N potentiostat (Metrohm) controlled by the PC running Autolab Nova 1.4 software (Metrohm).
The cell was incubated for 1 min before measurement of a 30 s photocurrent. All herbicides and inhibitors were purchased from Sigma-Aldrich, and their structures are shown in Supplementary Fig. 2.
For titrations, the photocurrent from a freshly prepared cell was measured for 30 s before and after the addition of increasing concentrations of atrazine, terbutryn or stigmatellin prepared in 20 mM Tris (pH 8.0)/20 µM cyt c/30 µM UQ0. After each addition the cell was equilibrated for 60 s before measuring the photocurrent, which was sufficient to allow stabilisation of the applied current required to maintain a potential of −100 mV vs SCE. Maximal photocurrents were plotted as a function of inhibitor concentration and fitted with a logistic function to determine the IC50 and IC5 (see text). These IC50 values were used to estimate Ki using the Cheng–Prusoff equation (see text).
To quantify the sensitivity of photocurrent generation to atrazine, terbutryn and stigmatellin the maximal photocurrent after a standard period of 30 s was recorded as a function of herbicide or inhibitor concentration. The titration data, expressed as the percentage of the maximum current in the absence of the herbicide/inhibitor, were fitted to a logistic function (Eq. (1)) to determine the IC50.(1) Y=Min+Max−Min/1+([Inhibitor]/IC50)^−HillCoefficient where Max and Min are maximal and minimal photocurrents, respectively. […] Based on this, the LOD can be represented by an IC5 value that can be calculated from the parameters of the IC50 fit (Eq. (2)).
To compare the sensitivity of our photochemical cell device to previous studies employing Rba. sphaeroides reaction centres, the IC50 values were converted to values for the binding affinity of the inhibitor (Ki) using the Cheng–Prusoff equation (Eq. (3)) ([Cheng and Prusoff, 1973])(3) Ki=IC50/1+([S]/Km) where [S] is the substrate concentration and Km is the measured Michaelis constant for UQ0 (see above).

[2] = molecular target: T1, Rba. sphaeroides reaction centre (QB site); assay: Kinetics of charge recombination in photo-oxidised reaction centres in solution (absorbance at 865 nm); type: biochemical, Rhodobacter sphaeroides; conditions: for effect on recombination rate (in words): 500 µM agent; for τ1 / τ2 / A1 / A2: 500 µM inhibitor; for τ1 / τ2: 13.2 µM reaction centres, 30 µM UQ0, ± standard error; for A1: amplitude of τ1 component; for A2: amplitude of τ2 component
Procedure: Analysis of the effects of herbicides or inhibitors on the kinetics of charge recombination was performed using a Cary60 spectrophotometer connected to an external 1 cm cuvette holder (Ocean Optics) via a fibre-optic coupler. A white light pulse of 50 ms duration was applied to the sample cuvette at 90° to the pulsed measuring beam by an HL-2000-FHSA white light source with a fast shutter (Ocean Optics) delivering approximately 25 W m^−2 illumination at the cuvette surface. The actinic pulse was triggered by a TGP110 pulse generator (Thurlby Thandur Instruments). […] Test samples were loaded into to a 3×3 mm fluorescence cuvette (Hellma) aligned to the measuring and excitation pulses and absorbance at 865 nm was measured for 20 s after delivery of the light pulse, with a further period of at least 60 s to allow full dark adaptation of the reaction centres before re-excitation. A set of eight kinetic traces were recorded for each sample, averaged, and fitted using a single or double exponential function in Origin 8 (OriginLab).
To ensure this pattern of results was not specific to the conditions within the photoelectrochemical cell, the ability of these inhibitors to replace ubiquinone at the QB site was also tested by measuring the rate of recombination from QA and QB to the primary donor bacteriochlorophyll (P) after excitation with a pulse of white light (see Section 2). As outlined in Section 1, recombination of P^+QA^− or P^+QB^− occurs with lifetimes of ~100 ms and ~1 s, respectively. As the QB quinone is partially lost during purification of reaction centres, assays were conducted in the presence of 30 µM UQ0 to reconstitute QB, the reaction centre concentration being 13.2 µM.

[3] = molecular target: T2, Rba. sphaeroides reaction centre quinone reductase (QB) site (Cereibacter sphaeroides, UniProt P0C0Y8); assay: Determination of the Km(apparent) for UQ0 from photocurrent density; type: biochemical, Rhodobacter sphaeroides; conditions: detergent-free buffer, Michaelis–Menten fit
T2 construct: made in house; host or cells: Rba. sphaeroides strain DD13 carrying plasmid pvLMt (written pvLMtX)
Procedure: Photovoltaic cells were assembled as described above but with the omission of UQ0. Photocurrents of 30 s duration were measured in the absence of UQ0 and after the addition of increasing amounts of UQ0. Maximal currents from three titrations were averaged, plotted as a function of UQ0 concentration then fitted with the Michaelis–Menten equation using Origin 8.0 (OriginLab).
To optimise the concentration of the substrate for the reaction centre quinone reductase (QB) site in the cell the Km^(apparent) for UQ0 was determined by measuring the maximum photocurrent density during a 30 s period of illumination as a function of increasing concentrations of UQ0. A concentration-dependent increase in the photocurrent amplitude was obtained, which was fitted with the Michaelis–Menten equation (Supplementary Fig. 3). […] This Km^(apparent) for UQ0 is, to our knowledge, the strongest reported to date. […] As the present assay was conducted in detergent-free buffer, the stronger Km^(apparent) obtained is consistent with this trend.

reaction centre QB site = molecular target: reaction centre QB site; parameters: method as in earlier work; conditions: ref McComb et al., 1990, Paddock et al., 1988, Gerencsér and Maróti, 2008, cited from earlier work
[4] = molecular target: QB site in the Rba. sphaeroides reaction centre; parameters: method as in Stein et al., 1984; conditions: 1 μM reaction centres, 10 mM Tris (pH 8.0), 100 mM NaCl, 0.06% TX-100, 20 μM UQ10; ref Stein et al., 1984; cited from earlier work
[5] = test system: Blc. viridis reaction centres (tyrosine to phenylalanine mutant near QB pocket); parameters: method as in Sinning et al., 1989; conditions: ref Sinning et al., 1989, cited from earlier work
[6] = test system: Blc. viridis reaction centre; parameters: method as in Sinning et al., 1989; conditions: ref Sinning et al., 1989; cited from earlier work
PSII = conditions: cited from earlier work
spinach thylakoids = test system: spinach thylakoids; parameters: method as in Touloupakis et al., 2005; conditions: albumin glutaraldehyde matrix; ref Touloupakis et al., 2005; cited from earlier work
[7] = mutant vs normal reaction centre
[8] = PSII complexes in glutaraldehyde–BSA matrix on graphite electrode, ref Koblížek et al., 2002
[9] = PSII reaction centres or BBY particles on screen printed gold electrodes, ref Bhalla and Zazubovich, 2011

SMILES	photocurrent remaining ([1]; 500 µM agent)	effect on recombination rate (in words) [2]	τ1 [2] [s]	τ2 [2] [s]	A1 [2] [%]	A2 [2] [%]	inhibition of the QB site / photocurrent (in words) [1]	Kd [4] [nM]	IC50 [1] [nM]	Ki [1] [nM]	photocurrent remaining ([1]; 100 µM agent)	LOD (IC5) [1] [nM]	further results
COc1cc(CNC(=O)CCCC/C=C/C(C)C)ccc1O [capsaicin]	greater than 80%	unaffected	0.152 ± 0.011	1.19 ± 0.03	41.0 ± 3.8	59.0 ± 2.2	–	–	–	–	–	–	–
COC1=C(OC)C(=O)C(C)=CC1=O [UQ0, ubiquinone-0]	–	–	–	–	–	–	–	–	–	–	–	–	Km [3]: 42 ± 2 µM; Kd (reaction centre QB site; 0.0025% LDAO): 175000 nM and 90000 nM; Kd (reaction centre QB site; 0.06% LDAO): 480000 nM; Kd (reaction centre QB site; 0.1% LDAO): 600000 nM
N#Cc1cc(Br)c(O)c(Br)c1 [bromoxynil]	greater than 80%	unaffected	0.038 ± 0.009	1.14 ± 0.04	36.1 ± 12.4	63.9 ± 2.2	ineffective	30000	–	–	–	–	–
CC(C)N1C(=O)c2ccccc2NS1(=O)=O [bentazon]	greater than 80%	unaffected	0.129 ± 0.015	1.09 ± 0.03	39.0 ± 5.8	61.0 ± 3.0	weak inhibition	–	–	–	–	–	–
N#Cc1cc(I)c(O)c(I)c1 [ioxynil]	–	–	–	–	–	–	–	–	–	–	–	–	increase in sensitivity to inhibitor in mutant [5, 7]: 100 fold; inhibitor grouping (in words) [6]: very weak inhibitors
CN(C)C(=O)Nc1ccc(Cl)c(Cl)c1 [DCMU, 3-(3,4-dichlorophenyl)-1,1-dimethylurea]	–	unaffected	0.179 ± 0.012	1.18 ± 0.04	51.7 ± 3.7	48.3 ± 3.7	–	> 800000	–	–	–	–	increase in affinity in mutant ([5]; single tyrosine to phenylalanine change): at least four orders of magnitude; inhibitor grouping (in words) [6]: very weak inhibitors
C/C=C(C)/C=C/C=C/[C@H](OC)[C@@H](C)[C@@H](OC)[C@@H](C)CCc1oc2c(O)c(OC)cc(OC)c2c(=O)c1C [stigmatellin]	–	accelerated significantly	0.095 ± 0.003	–	100	–	strong inhibition	–	280 ± 60	165	less than 10%	8.3	LOD (IC5) ([1]; listed as Stigmatellin): 10 nM
CCNc1nc(Cl)nc(NC(C)C)n1 [atrazine, N^2-ethyl-6-chloro-N^4-isopropyl-1,3,5-triazine-2,4-diamine]	–	accelerated significantly	0.212 ± 0.004	–	100	–	strong inhibition	120000	2100 ± 100	1200	less than 10%	~50	LOD (IC5) ([1]; listed as Atrazine): 49 nM; IC50 (PSII; [8]): 90 nM; LOD (PSII; [8]): 2 nM; IC50 (PSII; PSII on screen printed Pt electrode in glutaraldehyde–BSA–glycerol matrix, ref Masojídek et al., 2011): 890 nM; IC50 (PSII; [9]): 49 nM; LOD (PSII; [9]): 1.15 nM; IC50 (spinach thylakoids): 100 nM; LOD (spinach thylakoids): 12.7 nM
CCNc1nc(NC(C)(C)C)nc(SC)n1 [terbutryn]	–	accelerated significantly	0.152 ± 0.004	–	100	–	strong inhibition	3000	208 ± 10	123	less than 10%	8.3	decrease in sensitivity to inhibitor in mutant [5, 7]: 660 fold
